The values below come from patent publication US7303758B2 (Cordis Corporation, priority 2004, dated 2007).

Data set [1] can be described thus: In vivo release kinetics from PVDF basecoat with PVDF topcoat, porcine pharmacokinetics studies. As to conditions: six hundred micro grams basecoat, two hundred micro grams topcoat. From the text:
The topcoat is two hundred micro grams.

The subject of data set [2] is non-synchronized cultured human coronary artery smooth muscle cells. The data set is described as follows: Anti-proliferative activity of rapamycin with varying mycophenolic acid concentrations. The class given is cell-based. As to conditions: mycophenolic acid zero to one thousand nano molar, two percent fetal bovine serum. The source says:
The multiple curves represent various concentrations of mycophenolic acid ranging from zero to one thousand nano molar concentrations. […] This potentiation observed in cultured coronary artery smooth muscle cells preferably translates to an enhancement in anti-restenotic efficacy following vascular injury and a reduction in the required amount of either agent to achieve the desired anti-restenotic effect.

Data set [3] can be described thus: In vivo release kinetics from EVA/BMA basecoat, porcine pharmacokinetics studies. As to conditions: basecoat 180 μg rapamycin, 180 μg mycophenolic acid, 240 μg EVA/BMA, with or without BMA topcoat.
In data set [4] the test system is human coronary artery smooth muscle cell proliferation. The data set is described as follows: In vitro cell culture study of coronary artery smooth muscle cell proliferation. It is filed as cell-based. From the text:
FIG. 51 is a graph of the inhibition of coronary artery smooth muscle cells by trichostatin A in a cell culture study.

Data set [5] relates to tumor cell lines. As to conditions: cited from earlier work.

With `CO[C@H]1C[C@@H]2CC[C@@H](C)[C@@](O)(O2)C(=O)C(=O)N2CCCC[C@H]2C(=O)O[C@H]([C@H](C)C[C@@H]2CC[C@@H](O)[C@H](OC)C2)CC(=O)[C@H](C)/C=C(\C)[C@@H](O)[C@@H](OC)C(=O)[C@H](C)C[C@H](C)/C=C/C=C/C=C/1C` [Rapamycin, rapamycin], in data set [1], the “in vivo release rate from PVDF basecoat with PVDF topcoat” value is given as “slower release rate than that of mycophenolic acid”.
Turning to `COc1c(C)c2c(c(O)c1C/C=C(\C)CCC(=O)O)C(=O)OC2` [mycophenolic acid], the “effect on anti-proliferative rapamycin dose response curve” value in data set [2] is “potentiates the anti-proliferative activity of rapamycin”. In data set [3], the “in vivo release from EVA/BMA basecoat” value was “elutes more completely over a shorter duration than the rapamycin”.
As to `CC(/C=C/C(=O)NO)=C\[C@@H](C)C(=O)c1ccc(N(C)C)cc1` [trichostatin A], in data set [4] (human coronary artery smooth muscle cells, read-out: anti-proliferative IC50), the IC50 (in general, the point on the concentration scale where inhibition reaches its midpoint) was roughly 6 nM. The “inhibition of human coronary artery smooth muscle cell proliferation” value in data set [4] (in vitro cell culture) is recorded as “completely inhibit”. Further, the “anti-proliferative IC50” value in data set [5] was “low nM range”.
